According to patent publication US10765741B2, “Methods for treating VEGF-expressing cancer using preformed nanoparticle complexes comprising albumin-bound paclitaxel and bevacizumab” (Mayo Foundation for Medical Education and Research, priority 2011, dated 2020):

What was measured:
[1] = Complex formation of labeled antibodies with labeled Abraxane nanoparticles, flow cytometry; type: binding; settings: fluorescently labeled antibody and nanoparticles
Description: Three therapeutic monoclonal antibodies (bevacizumab, trastuzamab, and rituxan) were fluorescently labeled and incubated with fluorescently labeled Abraxane® nanoparticles. The particles were spun down, washed, and visualized by flow cytometry.

[2] = Bevacizumab incubated with free paclitaxel, Western blot with anti-paclitaxel antibody; type: binding; settings: 4 mg bevacizumab, paclitaxel 0.1-2 mg, 30 minutes room temperature
Description: The following was performed to determine if bevacizumab binds free paclitaxel. 4 mg of bevacizumab was incubated with paclitaxel (0.1, 0.5, 1, or 2 mg) for 30 minutes at room temperature.

| Substance | complex formation with Abraxane nanoparticles [1] | binding of free paclitaxel [2] |
| --- | --- | --- |
| bevacizumab: Humanized monoclonal antibody that binds to vascular endothelial growth factor A | spontaneously formed complexes | did not bind |
| rituxan: Therapeutic monoclonal antibody | spontaneously formed complexes |  |
